3 molecules from patent US10501748B2, “Methods and compositions for integration of an exogenous sequence within the genome of plants” (Dow AgroSciences LLC, priority 2013, dated 2019) can be followed below.

For data set [1], the system named is protoplasts of SEC-derived cell suspension culture of cv. Bobwhite MPB26RH. The data set can be described thus: basal tolerance to BASTA of protoplast agarose bead-type cultures (calli growth). To be noted: 2 weeks. Type of data set: cell-based, Triticum aestivum. An excerpt: BASTA® selection conditions are optimized using protoplasts derived from somatic embryogenic callus (SEC)-derived cell suspension culture of the wheat line cv. Bobwhite MPB26RH. While protoplasts derived from Bobwhite MPB26RH are non-totipotent (i.e., cannot be used to regenerate entire plants), the selection conditions established for enriching the events that express the PAT gene are expected to be transferable to any protoplast-based transformation system based on a totipotent wheat genotype. The experiments are conducted, and the basal tolerance of the wild-type donor wheat line cv. Bobwhite MPB26RH to BASTA® is established. The use of BASTA® selection conditions stronger than basal tolerance are identified and used to select for transformed cells expressing the PAT gene.
Protoplasts are isolated from an established SEC-derived cell suspension culture and used to establish agarose bead-types cultures, as described previously. The basal tolerance of wheat line cv. Bobwhite MPB26RH to BASTA® is determined by incubating the agarose bead-type cultures in media supplemented with 0, 0.5, 2.5, 5, 7.5, 10, 20, 30, 40 and 50 mg/L BASTA® and assessing the rate of calli growth after 2 weeks. The BASTA® concentrations (e.g., higher than 20 mg/L) that severely impeded calli development are optimal for enriching and selecting wheat cells having the PAT gene.

Data set [2] has as its system regenerated plants of wild-type cv. Bobwhite MPB26RH. The data set can be described thus: basal tolerance to sulfometuron methyl at the plant rooting stage. The class given is in vivo, Triticum aestivum. The conditions noted are these: wild-type donor wheat line; 3 weeks. The protocol: The basal tolerance of the wild-type donor wheat line to sulfometuron methyl at the plant rooting stage was determined as follows: scutella of immature zygotic embryos were isolated and placed in 10 cm petri dishes containing CIM medium. Then SEC was allowed to form by incubating at 24° C. in the dark for 4 weeks. The SEC was transferred to 10 cm petri dishes containing DRM medium and incubated for 2 weeks at 24° C. under a 16/8 (light/dark) hour photoperiod to allow plant regeneration to take place. Regenerated plants were transferred to 10 cm petri dishes containing RM medium supplemented with 0, 100, 200, 250, 300, 400, 500, 1000 and 2000 nM sulfometuron methyl, respectively. Ten regenerated plants were placed in each petri dish. A total of 30 regenerated plants were tested for basal tolerance response at each sulfometuron methyl concentration. After incubation for 3 weeks at 24° C. under a 16/8 (light/dark) hour photoperiod in a growth room, the root formation response was recorded.

In data set [3] the test system is somatic embryogenic callus of wild-type cv. Bobwhite MPB26RH. The data set can be described thus: basal tolerance to sulfometuron methyl at the plant regeneration stage. Type of data set: cell-based, Triticum aestivum. The conditions noted are these: wild-type donor wheat line; 2000 nM; 2 weeks; compared to untreated samples. The protocol:
The basal tolerance of the wild-type donor wheat line to sulfometuron methyl at the plant regeneration stage was determined as follows: scutella of immature zygotic embryos from the donor wheat line were isolated and placed in 10 cm petri dishes containing CIM medium. Then SEC was allowed to form by incubating at 24° C. in the dark for 4 weeks. The SEC was transferred to 10 cm petri dishes containing DRM medium supplemented with 0, 100, 500, 1000, 1500, 2000, 2500 and 3000 nM sulfometuron methyl, respectively. Twenty CIM were placed in each petri dish. A total of 60 CIM were tested for basal tolerance response at each sulfometuron methyl concentration. After incubation for 2 weeks at 24° C. under a 16/8 (light/dark) hour photoperiod in a growth room, the regeneration response was recorded.

The test system of data set [4] is transgenic wheat events with low-copy T-DNA expressing AHAS (P197S). The experiment in a line: basal tolerance to sulfometuron methyl at the rooting stage of transgenic AHAS (P197S) events. Type of data set: in vivo, Triticum aestivum. To be noted: transgenic AHAS (P197S) events from pDAS000164; 400-600 nM; 2 weeks. The protocol:
The basal tolerance of transgenic wheat events with randomly integrated, low-copy (≤3) T-DNA expressing the AHAS (P197S) mutation to sulfometuron methyl from pDAS000164 at the plant rooting stage was determined as follows: four independent transgenic events were randomly selected and multiplied in vitro by sub-culturing on multiplication medium. Following multiplication, plants for each event were transferred to 10 cm petri dishes containing RM medium supplemented with 0, 400, 450, 500, 550 and 600 nM sulfometuron methyl, respectively. Four plants (one from each of the four events) were placed in each petri dish. A total of 3 plants per event were tested for basal tolerance at each sulfometuron methyl concentration. After incubation for 2 weeks at 24° C. under a 16/8 (light/dark) hour photoperiod in a growth room, the root formation response was recorded.

Data set [5] deals with scutella of wild-type cv. Bobwhite MPB26RH (P197/P197). The data set can be described thus: basal tolerance to sulfometuron methyl at the callus induction stage. Type of data set: cell-based, Triticum aestivum. The conditions noted are these: 100 nM, 4 weeks, compared to untreated samples. The protocol: A series of experiments were performed to determine optimal selection conditions for regenerating wheat plants expressing the AHAS (P197S) mutation conferring tolerance to sulfonylurea class herbicides. These experiments were based on testing the basal tolerance of the wild-type donor wheat line cv. Bobwhite MPB26RH (P197/P197 genotype, which confers susceptibility to sulfonylureas) at the callus induction, plant regeneration and rooting stages of an established wheat transformation system. Similar experiments were performed to determine the basal tolerance of transgenic cv. Bobwhite MPB26RH events that had randomly integrated T-DNA expressing the AHAS (P197S) mutation, which confers tolerance to sulfonylurea selection agents.
The basal tolerance of the wild-type donor wheat line to sulfometuron methyl at the callus induction stage was determined as follows: scutella of immature zygotic embryos were isolated, as previously described in Example 4, and placed in 10 cm petri dishes containing CIM medium supplemented with 0, 100, 500, 1000, 1500 and 2000 nM sulfometuron methyl, respectively. Twenty scutella were placed in each petri dish. A total of 60 scutella were tested at each sulfometuron methyl concentration. After incubation at 24° C. in the dark for 4 weeks, the amount of somatic embryogenic callus formation (SEC) at each sulfometuron methyl concentration was recorded. […]

Data set [6] deals with endogenous AHAS locus in scutella of cv. Bobwhite MPB26RH. The experiment in a line: biolistics-mediated transformation for first sequential transgene stack with IMAZAMOX or BASTA selection. Type of data set: cell-based, Triticum aestivum. The conditions noted are these: donor with pDAB109350 at 5:1. The protocol:
A total of 55,468 scutella of immature zygotic embryos from the donor wheat line cv. Bobwhite MPB26RH were prepared for biolistics-mediated DNA delivery, as described previously. DNA-coated gold particles were prepared with the formulations as described above. For transfections performed using the linear double-stranded donor DNA derived from “QA_pDAS000434” or pDAS000433, the donor DNA was mixed at a 5:1 molar ratio with plasmid DNA for pDAB109350 (encoding ZFNs 29732 and 29730). Transfections performed using pDAS000143 were performed using gold particles that were coated only with plasmid DNA for pDAS000143.
Biolistic-mediated transfections were performed as described previously. Following bombardment, the transfected scutella were incubated at 26° C. in the dark for 16 h before being transferred onto medium for callus induction.
Two different chemical selection strategies were used to enrich for regenerated wheat plants with an integrated linear double-stranded donor molecule. […] The purpose of the second chemical selection strategy was to allow the frequency of precise (on-target) versus random (off-target) donor integration to be quantified, as well as the frequency of perfect and imperfect integration at the endogenous AHAS loci. […]

On to `CP(=O)(O)CCC(N)C(=O)O` (racemic) [BASTA, DL-Phosphinothricin], for which the “concentrations that severely impeded calli development” value in data set [1] is given as “higher than 20 mg/L”.
In the case of `COC(=O)c1ccccc1S(=O)(=O)NC(=O)Nc1nc(C)cc(C)n1` [sulfometuron methyl], the “concentrations at which root formation was severely inhibited” value in data set [2] is reported as “higher than 400 nM”. In data set [3], the “reduction of plant regeneration” value was “about 80%”. Moreover, the “root formation compared to untreated controls” value in data set [4] is “not restricted”. Also, the “reduction of SEC formation” value in data set [5] was “about 70%”.

B1: pDAS000433: donor molecule backbone for first transgene stack, S653N; SEQ ID NO:71 (nucleic acid)
DNA: CCACTCTTGCCCTACACGACACTGAAGACCTTATGATTCCAAACGGCGGCGCCTTCAAGGACATGATCATGGAGGGTGATGGCAGGACCTCGTACTGAAATTTCGACCTACAAGACCTACAAGTGTGACATGCGCAATCAGCATGGTGCCCGCGTGTTGTATCAACTACTAGGGGTTCAACTGTGAACCATGCGTTTTCTAGTTTGCTTGTTTCATTCATATAAGCTTGTGTTACTTAGTTCCGAACCCTGTAGCTTTGTAGTCTATGCTCTCTTTTGTAGGGATGTGCTGTCATAAGATATCATGCAAGTTTCTTGTCCTACATATCAATAATAAGTACTTCCATGGAATAATTCTCAGTTCTGTTTTGAATTTTGCATCTTCTCACAAACAGTGTGCTGGTTCCTTTCTGTTCGCTGACGCCCTCCTCGACTCCATCCCCATGGTCGCCATCACGGGCCAGGTCCCCCGCCGCATGATCGGTAGCGACTTCGTGGGCGAGGAAAGCCTTTCGTCCAAGGTGGTCCCTCCTCGCAATCTTGTTGGATGGTGAATATTATAAAAGCCTGCCCTTCTCGCGGGTAAGACTCCCGCCCATCCAGGATGAGGATGACCAGCCTTTTGCAGTTTATCCACTAGGGACAGGATTGCATCCTGCCGAAACCCTGCCAAGCTTGAGGTAGCCTCCAATTTGACGGTGCCGCCAGCGACGCCGTCTGGAACTGTCCTTTTTGAGGACCACTCCGTTTGTCTAGAGGTACCTGGAGATCATGACATTAAGGATGACCAGTTCGTAAAGGTCCTGCGGTGTCTATTGCTTTTCATAGGTTAATAAGTGTTTGCTAGACTGTGGTGAAAGGCCAAGACTCCCGCCCATCTCTCTATGCCCGGGACAAGTGCCACCCCACAGTGGGGCAGGATGAGGATGACCAAAGACTCCCGCCCATCTCACTAGGGACAGGATTGGCCTTTTGCAGTTTATCTCTATGCCCGGGACAAGTGTATCCGAAGTAAATAAAACCATCGGACTCTCGTATAAGACTGTCGACTCGACCGGCCGACGCATAGGTTCATTTGAAGCTGCTATTCTATTTAAATTGAAACTCGGACGGTAGCAGTGTGGTATGAGGTCTTCAGCACACTCGGTAACTCCAGTCAC
modifications: pDAS000433
Take B1: in data set [6] (BASTA selection), the wheat plants recovered is given as 1,652. The “wheat plants with AHAS herbicide tolerance phenotype recovered” value in data set [6] (IMAZAMOX selection) was “No wheat plants”.
